Earlier results as cited in paper PMC6444188, “Systemic Administration of Avian Defensin 7: Distribution, Cellular Target, and Antibacterial Potential in Mice” (Frontiers in Microbiology, 2019).
Ends that are not written are not given here.

What was measured:
S. Typhi = conditions: intraperitoneal mouse model of salmonellosis; ref Maiti et al., 2014
Text: There is a lack of knowledge on the ability of defensins to exert antimicrobial activity toward MDR bacterial strains. […] There are several mouse salmonellosis models available to assess vaccine and antimicrobials efficacy ([Higginson et al., 2016]). These range from models of colonization or lethality, through infection by the oral, ...

proteases = system: proteases
Text: AvBDs are characterized by cationicity and structure with the typical beta-sheet stabilized by three disulfide bonds between six highly conserved cysteines while primary sequences are diverse ([Derache et al., 2012]).

S. Typhimurium = system: S. Typhimurium
Text: The ability of AvBD7 to reduce bacterial load in the liver of Salmonella-infected animals is in agreement with the distribution of this defensin to this organ. Indeed, even if most part of the fluorescence-labeled AvBD7 injected in the peritoneal cavity of mice reached bloodstream, kidneys and was eliminated through the urinary tract, a substantial amount was found in the liver, the second most fluorescent organ after the kidneys.

[1] = 30 mg/kg i.p., S. Typhimurium-infected mice, ref Benincasa et al., 2010

HBD1: human beta-defensin (DHYNCVSSGGQCLYSACPIFTKIQGTCYRGKAKCCK; ends and bridges not checked; cysteine pairing not given here; UniProt P60022 33-68, looked up)
effect on disease and bacterial load (S. Typhi): efficient in attenuating the disease and the bacterial load

HBD3: human beta-defensin (GIINTLQKYYCRVRGGRCAVLSCLPKEEQIGKCSTRGRKCCRRKK; ends and bridges not checked; cysteine pairing not given here; UniProt P81534 23-67, looked up)
stability toward proteases (proteases): can be inactivated by proteases

Bac7: proline-rich antimicrobial peptide (RRIRPRPPRLPRPRPRPLPFPRPGPRPIPRPLPFP; Bac7; UniProt P19661 131-165, looked up, fragment)
effect on liver bacterial load (S. Typhimurium; [1]): without significant reduction of the liver bacterial load
effect on mice survival (S. Typhimurium; [1]): beneficial effect on mice survival
time to elimination following i.p. injection (S. Typhimurium; mouse, in vivo, ip): ≤ 5 h
